# Source: PMC7413254 (Nature Communications, 2020)
# Read-outs that look alike come from different tables or passages of the source.
# What was measured:
# PfCRT [1] = assay: Test of solutes as potential co-substrates for influx of VF-6 via PfCRT into the oocyte; type: cell-based, Plasmodium falciparum; set-up: key: X: Compounds that have been tested as potential co-substrates but are not required for influx of VF-6 via PfCRT into the oocyte; conditions: X = tested
# non-expressing oocytes [2] = assay: cells; type: cell-based, Xenopus laevis; conditions: Xenopus laevis, total [3H]CQ transport; for inhibition at 500 µM: [test solute] = 0.5 mM; for inhibition at 1000 µM: [test solute] = 1 mM; for inhibition at 2000 µM: [test solute] = 2 mM
# Method in brief: (§1)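 Each treatment used ten oocytes, repeated in at least four experiments on different days with oocytes from different frogs. Conditions: ND96 pH 5.5, 27.5 °C, 1.5 h; read-out by scintillation counting.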
# PfCRT [3] = assay: Potential co-substrates tested for influx of VF-6 via PfCRT into the oocyte; type: cell-based, Plasmodium falciparum; set-up: key: X: Compounds that have been tested as potential co-substrates but are not required for influx of VF-6 via PfCRT into the oocyte
# PfCRT^3D7 [4] = target: T1, PfCRT^3D7 (Plasmodium falciparum, UniProt Q8IBZ9); assay: cell-based; type: cell-based; conditions: total [3H]CQ transport; for inhibition at 500 µM: [test solute] = 0.5 mM; for inhibition at 1000 µM: [test solute] = 1 mM; for inhibition at 2000 µM: [test solute] = 2 mM
# T1 sequence (Q8IBZ9 59-398): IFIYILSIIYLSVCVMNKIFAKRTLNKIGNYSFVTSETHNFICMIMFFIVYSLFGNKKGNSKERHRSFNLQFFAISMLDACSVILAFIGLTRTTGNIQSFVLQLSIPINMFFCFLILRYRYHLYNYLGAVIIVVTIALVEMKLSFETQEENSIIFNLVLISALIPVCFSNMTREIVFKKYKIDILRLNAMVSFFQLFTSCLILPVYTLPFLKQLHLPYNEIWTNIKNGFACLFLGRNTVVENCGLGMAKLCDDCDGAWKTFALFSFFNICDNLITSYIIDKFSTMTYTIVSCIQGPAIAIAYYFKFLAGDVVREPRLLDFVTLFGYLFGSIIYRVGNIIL
# Method in brief: as §1
# PfCRT^3D7 [5] = target: T1, PfCRT^3D7; assay: cell-based; type: cell-based
# Method in brief: (§2)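 Oocytes (ten per treatment, ≥4 independent frogs/days) were preloaded by injecting VF-6 in 25 nL ND96 at pH 5.0, 5.5, 6.0 or 7.0, or Na^+-free choline buffer, then uptake run 1.5 h, 27.5 °C, ND96 pH 5.5 by default. Internal concentrations assumed ~400 nL oocyte volume.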
# PfNT1 = target: T2, PfNT1 (Plasmodium falciparum, UniProt Q8IDM6); assay: cell-based; type: cell-based; conditions: […], read-out: Uptake of [3H]CQ (% PfCRTDd2 control), trans-stimulation, PfNT1; SEM
# T2 construct: expressed in transfected cells; host or cells: Xenopus laevis oocytes (stage V-VI), cRNA-injected
# T2 sequence (Q8IDM6 whole entry): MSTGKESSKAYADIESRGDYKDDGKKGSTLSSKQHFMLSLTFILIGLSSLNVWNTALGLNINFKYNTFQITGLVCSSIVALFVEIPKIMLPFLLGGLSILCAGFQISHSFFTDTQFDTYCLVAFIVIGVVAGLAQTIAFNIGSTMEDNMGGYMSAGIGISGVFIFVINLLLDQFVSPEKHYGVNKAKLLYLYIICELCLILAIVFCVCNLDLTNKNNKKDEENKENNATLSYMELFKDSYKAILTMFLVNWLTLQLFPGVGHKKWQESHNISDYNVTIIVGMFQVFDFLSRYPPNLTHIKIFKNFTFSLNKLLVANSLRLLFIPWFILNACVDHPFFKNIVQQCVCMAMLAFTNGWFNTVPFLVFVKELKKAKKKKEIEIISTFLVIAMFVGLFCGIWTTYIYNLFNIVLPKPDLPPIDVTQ
# Method in brief: as §2
# PfCRT^Ecu1110 [6] = target: T3, PfCRT^Ecu1110 (Plasmodium falciparum, UniProt Q9N623, A220S/I356L/K76T/N326D); assay: cell-based; type: cell-based; conditions: […]
# T3 sequence (Q9N623 whole entry A220S/I356L/K76T/N326D): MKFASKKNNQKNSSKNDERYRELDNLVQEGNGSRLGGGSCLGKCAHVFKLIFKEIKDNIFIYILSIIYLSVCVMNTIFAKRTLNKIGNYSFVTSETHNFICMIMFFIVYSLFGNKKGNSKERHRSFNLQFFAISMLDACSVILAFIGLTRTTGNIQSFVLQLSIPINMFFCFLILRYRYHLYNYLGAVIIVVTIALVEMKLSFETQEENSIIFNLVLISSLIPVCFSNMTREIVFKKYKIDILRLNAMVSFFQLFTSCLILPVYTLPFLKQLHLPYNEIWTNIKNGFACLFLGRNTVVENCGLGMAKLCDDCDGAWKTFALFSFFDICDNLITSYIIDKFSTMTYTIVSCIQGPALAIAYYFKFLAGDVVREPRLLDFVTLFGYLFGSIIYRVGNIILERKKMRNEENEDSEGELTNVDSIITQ
# Method in brief: as §2
# PfCRT^Dd2 [7] = target: T4, PfCRT^Dd2 (Plasmodium falciparum, UniProt Q9N623, A220S/I356T/K76T/M74I/N326S/N75E/Q271E/R371I); assay: cell-based; type: cell-based; conditions: […]; for activity at 45000 µM: [test solute]i = 45 mM (30 mM for some solutes due to solubility)
# T4 sequence (Q9N623 whole entry A220S/I356T/K76T/M74I/N326S/N75E/Q271E/R371I): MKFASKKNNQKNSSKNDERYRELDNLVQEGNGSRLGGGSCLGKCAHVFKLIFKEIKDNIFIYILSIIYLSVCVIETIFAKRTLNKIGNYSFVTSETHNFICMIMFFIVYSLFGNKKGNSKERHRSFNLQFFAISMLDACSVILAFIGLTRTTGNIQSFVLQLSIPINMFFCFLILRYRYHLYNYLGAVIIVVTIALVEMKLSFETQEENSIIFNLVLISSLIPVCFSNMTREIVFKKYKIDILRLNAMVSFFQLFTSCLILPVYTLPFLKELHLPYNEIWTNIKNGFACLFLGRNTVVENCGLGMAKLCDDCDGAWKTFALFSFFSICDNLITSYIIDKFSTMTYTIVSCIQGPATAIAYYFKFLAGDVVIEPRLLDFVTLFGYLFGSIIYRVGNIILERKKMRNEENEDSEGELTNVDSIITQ
# Method in brief: as §2
# non-expressing oocytes [8] = type: cell-based, Xenopus laevis; conditions: total [3H]CQ transport; for Uptake of [3H]CQ (% non-expressing oocyte control), trans-stimulation: non-expressing oocytes, normalised to the oocyte type control; for Uptake of [3H]CQ (% PfCRTDd2 control), trans-stimulation, non-expressing oocytes: mean ± SEM, SEM
# Method in brief: as §2
# PfCRT^Ecu1110 [9] = target: T3, PfCRT^Ecu1110; assay: [3H]CQ uptake into Xenopus oocytes, cis-inhibition by unlabelled solute; type: cell-based
# Method in brief: as §1
# PfCRT^Dd2 [10] = target: T4, PfCRT^Dd2; assay: as above; type: cell-based
# Method in brief: as §1
# [11] = Oocyte, mean ± SEM, SEM, read-out: Uptake of [3H]CQ (% PfCRTDd2 control), cis-inhibition, non-expressing oocytes
# [12] = non-expressing oocytes, normalised to the oocyte type control, read-out: Uptake of [3H]CQ (% non-expressing oocyte control), cis-inhibition
# [13] = PfCRT3D7 oocytes, normalised to the oocyte type control, read-out: Uptake of [3H]CQ (% PfCRT3D7 control), cis-inhibition
# [14] = mean ± SEM, SEM, read-out: Uptake of [3H]CQ (% PfCRTDd2 control), cis-inhibition, PfCRT3D7
# [15] = read-out: PfCRT-mediated [3H]CQ transport, cis-inhibition (% PfCRTEcu1110 control)
# [16] = read-out: Uptake of [3H]CQ (% PfCRTDd2 control), cis-inhibition, PfCRTEcu1110, SEM
# [17] = read-out: Uptake of [3H]CQ (% PfCRTEcu1110 control), cis-inhibition
# [18] = read-out: [3H]CQ transport (% PfCRTEcu1110 control), cis-inhibition, PfCRTEcu1110, SEM
# [19] = read-out: PfCRT-mediated [3H]CQ transport, cis-inhibition (% PfCRTDd2 control)
# [20] = read-out: Uptake of [3H]CQ (% PfCRTDd2 control), cis-inhibition
# [21] = read-out: Uptake of [3H]CQ (% PfCRTDd2 control), cis-inhibition, PfCRTDd2, SEM
# [22] = read-out: [3H]CQ transport (% PfCRTDd2 control), cis-inhibition, PfCRTDd2, SEM
smiles,measurement,setting,value
N[C@@H](CCC(=O)O)C(=O)O [L-glutamic acid],Tested as potential co-substrate but not required for influx of VF-6 via PfCRT into the oocyte,PfCRT [1],X
same,inhibition at 500 µM,non-expressing oocytes [2]; [11],2.5 ± 0.05%
same,inhibition at 1000 µM,non-expressing oocytes [2]; [11],2.7 ± 0.07%
same,inhibition at 2000 µM,non-expressing oocytes [2]; [11],3.8 ± 0.07%
same,inhibition at 500 µM,non-expressing oocytes [2]; [12],98 ± 4.7%
same,inhibition at 1000 µM,non-expressing oocytes [2]; [12],98 ± 3.7%
same,inhibition at 2000 µM,non-expressing oocytes [2]; [12],98 ± 5.2%
same,Tested as potential co-substrate but not required for influx of VF-6 via PfCRT into the oocyte,PfCRT [3],X
same,inhibition at 500 µM,PfCRT^3D7 [4]; [13],100 ± 3.8%
same,inhibition at 1000 µM,PfCRT^3D7 [4]; [13],101 ± 5.2%
same,inhibition at 2000 µM,PfCRT^3D7 [4]; [13],98 ± 5.7%
same,inhibition at 500 µM,PfCRT^3D7 [4]; [14],2.2 ± 0.01%
same,inhibition at 1000 µM,PfCRT^3D7 [4]; [14],2.8 ± 0.03%
same,inhibition at 2000 µM,PfCRT^3D7 [4]; [14],3.2 ± 0.08%
same,activity at 5000 µM,"PfCRT^3D7 [5]; PfCRT3D7 oocytes, [test solute]i = 5 mM, total [3H]CQ transport, normalised to the oocyte type control, read-out: Uptake of [3H]CQ (% PfCRT3D7 control), trans-stimulation",101 ± 2.6%
same,"[3H]CQ transport (% PfCRT3D7 control), trans-stimulation, PfCRT3D7",PfCRT^3D7 [5]; SEM,0.4 ± 0.02 % PfCRT3D7 control
same,activity at 5000 µM,"PfCRT^3D7 [5]; [test solute]i = 5 mM (intracellular), PfCRT3D7 oocytes, normalised to oocyte type control, read-out: PfCRT-mediated [3H]CQ transport, trans-stimulation (% PfCRT3D7 control)",99 ± 3.9%
same,activity at 45000 µM,"PfCRT^3D7 [5]; SEM, read-out: Uptake of [3H]CQ (% PfCRTDd2 control), trans-stimulation, PfCRT3D7",3.3 ± 0.02%
same,activity at 45000 µM,"PfCRT^3D7 [5]; read-out: PfCRT-mediated [3H]CQ transport, trans-stimulation (% PfCRT3D7 control)",97 ± 1.8%
same,activity at 45000 µM,"PfCRT^3D7 [5]; read-out: Uptake of [3H]CQ (% PfCRT3D7 control), trans-stimulation",99 ± 2.6%
same,activity at 5000 µM,"PfCRT^3D7 [5]; total [3H]CQ transport, [test solute]i = 5 mM (intracellular), mean ± SEM, SEM, read-out: Uptake of [3H]CQ (% PfCRTDd2 control), trans-stimulation, PfCRT3D7",3.4 ± 0.02%
same,activity at 5000 µM,PfNT1,2.7 ± 0.06%
same,activity at 5000 µM,"PfCRT^Ecu1110 [6]; pH 5.5, read-out: PfCRT-mediated [3H]CQ transport, trans-stimulation (% PfCRTEcu1110 control), [test solute]i = 5 mM (intracellular), PfCRTEcu1110 oocytes, normalised to oocyte type control",97 ± 2.4%
same,activity at 5000 µM,"PfCRT^Ecu1110 [6]; pH 5.5, read-out: Uptake of [3H]CQ (% PfCRTEcu1110 control), trans-stimulation, PfCRTEcu1110 oocytes, [test solute]i = 5 mM, total [3H]CQ transport, normalised to the oocyte type control",99 ± 3.6%
same,activity at 45000 µM,"PfCRT^Ecu1110 [6]; pH 5.5, read-out: Uptake of [3H]CQ (% PfCRTEcu1110 control), trans-stimulation, PfCRTEcu1110 oocytes, [test solute]i = 45 mM (30 mM for some solutes due to solubility), total [3H]CQ transport, normalised to the oocyte type control",100 ± 3.7%
same,activity at 5000 µM,"PfCRT^Ecu1110 [6]; read-out: Uptake of [3H]CQ (% PfCRTDd2 control), trans-stimulation, PfCRTEcu1110, total [3H]CQ transport, [test solute]i = 5 mM (intracellular), mean ± SEM, SEM",35 ± 1.5%
same,activity at 45000 µM,"PfCRT^Ecu1110 [6]; read-out: Uptake of [3H]CQ (% PfCRTDd2 control), trans-stimulation, PfCRTEcu1110, total [3H]CQ transport, [test solute]i = 45 mM (intracellular; 30 mM for some solutes due to solubility), mean ± SEM, SEM",36 ± 2.1%
same,activity at 5000 µM,"PfCRT^Dd2 [7]; pH 5.5, read-out: PfCRT-mediated [3H]CQ transport, trans-stimulation (% PfCRTDd2 control), [test solute]i = 5 mM (intracellular), PfCRTDd2 oocytes, normalised to oocyte type control",99 ± 3.5%
same,activity at 5000 µM,"PfCRT^Dd2 [7]; pH 5.5, read-out: Uptake of [3H]CQ (% PfCRTDd2 control), trans-stimulation, PfCRTDd2, total [3H]CQ transport, [test solute]i = 5 mM (intracellular), mean ± SEM, SEM",101 ± 2.2%
same,activity at 5000 µM,"PfCRT^Dd2 [7]; pH 5.5, read-out: Uptake of [3H]CQ (% PfCRTDd2 control), trans-stimulation, PfCRTDd2 oocytes, [test solute]i = 5 mM, total [3H]CQ transport, normalised to the oocyte type control",101 ± 2.2%
same,activity at 45000 µM,"PfCRT^Dd2 [7]; pH 5.5, read-out: Uptake of [3H]CQ (% PfCRTDd2 control), trans-stimulation, PfCRTDd2 oocytes, total [3H]CQ transport, normalised to the oocyte type control",96 ± 2.8%
same,activity at 5000 µM,"PfCRT^Dd2 [7]; pH 5.5, read-out: [3H]CQ transport (% PfCRTDd2 control), trans-stimulation, PfCRTDd2, trans-stimulation, [test solute]i = 5 mM (injected), PfCRT-mediated component (background subtracted), mean ± SEM, SEM",99 ± 3.5%
same,activity at 45000 µM,"PfCRT^Dd2 [7]; pH 5.5, read-out: [3H]CQ transport (% PfCRTDd2 control), trans-stimulation, PfCRTDd2, trans-stimulation, PfCRT-mediated component (background subtracted), mean ± SEM, SEM",94 ± 4.2%
same,"Uptake of [3H]CQ (% non-expressing oocyte control), trans-stimulation",non-expressing oocytes [8]; [test solute]i = 5 mM,99 ± 2.1 % non-expressing oocyte control
same,"Uptake of [3H]CQ (% non-expressing oocyte control), trans-stimulation",non-expressing oocytes [8]; [test solute]i = 45 mM (30 mM for some solutes due to solubility),99 ± 3.3 % non-expressing oocyte control
same,"Uptake of [3H]CQ (% PfCRTDd2 control), trans-stimulation, non-expressing oocytes",non-expressing oocytes [8]; [test solute]i = 5 mM (intracellular),3.1 ± 0.08 % PfCRTDd2 control
same,"Uptake of [3H]CQ (% PfCRTDd2 control), trans-stimulation, non-expressing oocytes",non-expressing oocytes [8]; [test solute]i = 45 mM (intracellular; 30 mM for some solutes due to solubility),2.9 ± 0.05 % PfCRTDd2 control
same,inhibition at 500 µM,PfCRT^Ecu1110 [9]; [15],92 ± 4.5%
same,inhibition at 1000 µM,PfCRT^Ecu1110 [9]; [15],93 ± 5.1%
same,inhibition at 500 µM,PfCRT^Ecu1110 [9]; [16],31 ± 1.5%
same,inhibition at 1000 µM,PfCRT^Ecu1110 [9]; [16],31 ± 2%
same,inhibition at 2000 µM,PfCRT^Ecu1110 [9]; [16],32 ± 1.9%
same,inhibition at 500 µM,PfCRT^Ecu1110 [9]; [17],94 ± 3.5%
same,inhibition at 1000 µM,PfCRT^Ecu1110 [9]; [17],96 ± 2.4%
same,inhibition at 2000 µM,PfCRT^Ecu1110 [9]; [17],99 ± 4.6%
same,inhibition at 500 µM,PfCRT^Ecu1110 [9]; [18],28 ± 0.8%
same,inhibition at 1000 µM,PfCRT^Ecu1110 [9]; [18],28 ± 0.6%
same,inhibition at 2000 µM,PfCRT^Ecu1110 [9]; [18],29 ± 0.4%
same,inhibition at 500 µM,PfCRT^Dd2 [10]; [19],96 ± 4.7%
same,inhibition at 1000 µM,PfCRT^Dd2 [10]; [19],94 ± 4.2%
same,inhibition at 2000 µM,PfCRT^Dd2 [10]; [19],94 ± 2.9%
same,inhibition at 1000 µM,PfCRT^Dd2 [10]; [20],96 ± 2.5%
same,inhibition at 2000 µM,PfCRT^Dd2 [10]; [20],96 ± 3.3%
same,inhibition at 500 µM,PfCRT^Dd2 [10]; [21],98 ± 2.7%
same,inhibition at 1000 µM,PfCRT^Dd2 [10]; [21],96 ± 2.5%
same,inhibition at 2000 µM,PfCRT^Dd2 [10]; [21],96 ± 3.3%
same,inhibition at 500 µM,PfCRT^Dd2 [10]; [22],96 ± 4.7%
same,inhibition at 1000 µM,PfCRT^Dd2 [10]; [22],94 ± 4.2%
same,inhibition at 2000 µM,PfCRT^Dd2 [10]; [22],94 ± 2.9%
